Measured values as given in patent publication US20090075974A1, “AGENT FOR PROPHYLAXIS AND TREATMENT OF PANCREATITIS” (UMN Pharma Inc., priority 2005, published 2009).
Read-outs that look alike come from different tables or passages of the source.

Experiments:
[1] = tested on: mouse with cerulein-induced pancreatitis; assay: Cerulein-induced acute pancreatitis in mouse: amylase and lipase activity in plasma; assay type: in vivo; details: for effect on amylase in blood of mice administered with cerulein / effect on lipase in blood of mice administered with cerulein: Example 1, FIG. 1, under the dorsal skin 15 min before first cerulein, ketanserin 3.2 mg/Kg; for inhibition rate of amylase activity: Example 2, FIG. 2, drug 3.2 mg/Kg
Method: Receptor subtypes involved in the onset of pancreatitis were examined with the use of antagonists of 5-HT2A receptor, 5-HT2B receptor, and 5-HT2C receptor. A mouse having acute pancreatitis induced by excessive administration of cerulein was used as an animal model. This model is not affected by food consumption, which is different from CDE pancreatitis, and thus it is possible to obtain constant pathologic features and analyze data more accurately.
An aqueous solution of cerulein (0.05 mg/Kg) was administered to a five-week-old mouse every one hour five times by hypodermic injection. Each 5-HT2 antagonist suspended in a solvent (0.5% methylcellulose in saline) was administered under the dorsal skin 15 minutes before the first administration of cerulein. […] Further, only the solvent was administered to the control group (group administered with cerulein alone) under the dorsal skin. One hour after the final administration, blood was collected, and amylase activity and lipase activity in the plasma were determined.
Effects of various 5-HT2A antagonists on amylase activity and lipase activity in plasma of cerulein-induced pancreatic mice were examined. […] Then the amylase activity and the lipase activity in plasma were determined.
Effects of various 5-HT2 antagonists on amylase activity and lipase activity in plasma of cerulein-induced pancreatic mice were examined. […] Then the amylase activity and the lipase activity in plasma were determined.

5-HT2C receptor = target: T1, 5-HT2C receptor (Homo sapiens, UniProt P28335); details: literature values, cited from earlier work
T1 construct: expressed in transfected cells; host or cells: HEK-293 (membrane fractions)
T1 sequence (P28335 33-458): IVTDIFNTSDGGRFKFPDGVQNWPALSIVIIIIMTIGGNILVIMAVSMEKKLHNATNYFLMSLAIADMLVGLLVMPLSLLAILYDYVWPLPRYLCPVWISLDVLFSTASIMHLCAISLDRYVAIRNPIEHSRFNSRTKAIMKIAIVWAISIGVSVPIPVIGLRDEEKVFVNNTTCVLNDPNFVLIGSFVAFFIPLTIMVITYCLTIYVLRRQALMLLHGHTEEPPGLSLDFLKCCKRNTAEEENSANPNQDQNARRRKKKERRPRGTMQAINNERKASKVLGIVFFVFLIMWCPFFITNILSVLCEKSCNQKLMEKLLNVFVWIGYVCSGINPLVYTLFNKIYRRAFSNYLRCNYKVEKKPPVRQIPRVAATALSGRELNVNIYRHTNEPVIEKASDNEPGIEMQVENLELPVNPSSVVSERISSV

5-HT2B receptor = target: T2, 5-HT2B receptor (Homo sapiens, UniProt P41595); details: literature values, cited from earlier work
T2 construct: expressed in transfected cells; host or cells: CHO-K1 (membrane fractions)
T2 sequence (P41595 whole entry): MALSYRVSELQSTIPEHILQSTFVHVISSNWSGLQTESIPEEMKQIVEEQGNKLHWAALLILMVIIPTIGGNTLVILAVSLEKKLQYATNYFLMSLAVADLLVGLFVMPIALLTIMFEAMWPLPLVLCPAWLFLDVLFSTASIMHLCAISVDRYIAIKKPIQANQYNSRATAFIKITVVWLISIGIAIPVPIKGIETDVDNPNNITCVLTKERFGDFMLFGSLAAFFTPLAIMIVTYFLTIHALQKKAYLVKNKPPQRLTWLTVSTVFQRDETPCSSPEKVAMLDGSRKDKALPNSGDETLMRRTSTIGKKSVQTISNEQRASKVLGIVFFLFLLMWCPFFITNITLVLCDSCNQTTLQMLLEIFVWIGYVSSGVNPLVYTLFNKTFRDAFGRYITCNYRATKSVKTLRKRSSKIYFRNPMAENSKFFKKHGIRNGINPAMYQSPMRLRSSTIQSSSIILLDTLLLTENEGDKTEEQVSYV

[2] = plasma, cerulein-induced pancreatitis mouse
[3] = Bonhaus et al. (1995), second block of Table 1

Compound | effect on amylase in blood of mice administered with cerulein [1] | effect on lipase in blood of mice administered with cerulein [1] | inhibition rate of amylase activity [1, 2] | also measured
O=C(c1ccc(F)cc1)C1CCN(CCn2c(=O)[nH]c3ccccc3c2=O)CC1 [ketanserin] | significantly decreased | significantly decreased | 37% | –
Cc1cc2c(cc1Cl)N(C(=O)Nc1ccc(Oc3cccnc3C)nc1)CC2 [SB242084] | didn't show any effect | didn't show any effect | – | –
CN1C[C@H](CNC(=O)OCc2ccccc2)C[C@@H]2c3cccc4c3c(cn4C)C[C@H]21 [Metergoline, metergoline] | – | – | – | inhibition rate of amylase ([1]; Example 3, FIG. 3, drug 3.2 mg/kg, plasma, cerulein-induced pancreatitis mouse): 30%
O=C1NCN(c2ccccc2)C12CCN(CCCOc1ccc(F)cc1)CC2 [AMI-193] | – | – | 17% | 5-HT2C pKi ± SEM (5-HT2C receptor; Knight et al. (2004)): 5.81 ± 0.16
Cc1nc2n(c(=O)c1CCN1CCC(c3noc4cc(F)ccc34)CC1)CCCC2 [risperidone] | – | – | 52% | –
OC(c1ccccc1)C1CCN(CCc2ccccc2)CC1 (stereo not drawn) [MDL11939] | – | – | −4% | –
Cc1cc(NC(=O)Nc2ccc3c(ccn3C)c2)sn1 [SB204741] | didn't show any effect | didn't show any effect | – | 5-HT2B pKi ± SEM (5-HT2B receptor; [3]): 7.1 ± 0.08; 5-HT2B pKi ± SEM (5-HT2B receptor; Knight et al. (2004)): 6.90 ± 0.27
O=C(CCCN1CCC2(CC1)C(=O)NCN2c1ccccc1)c1ccc(F)cc1 [spiperone] | – | – | – | 5-HT2C pKi ± SEM (5-HT2C receptor; [3]): <6.00
